The text below walks through data of US12612412B2, “Antiviral heterocyclic compounds” (Enanta Pharmaceuticals, Inc., priority 2021, dated 2026).

The subject of experiment [1] is genotype A, "Long" strain RSV. Kind of experiment: RSV-A assay (CPE protection in Hep-2 cells, ATPlite readout). The following applies: human respiratory syncytial virus, MOI 0.1, CPE protection. Format: cell-based, Human respiratory syncytial virus (HRSV). In short, it runs like this: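 Hep-2, 8,000 cells/well, MOI 0.1 (PFU- or TCID50-based); 2-fold compound series, duplicates; 5 d incubation; ATPlite luminescence readout; EC50.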
For orientation: Cellular ATP, detected with luciferase, serves as a proxy for viable cell number.

For experiment [2], the system named is HMPV clinical isolate TN/1501/A1. Kind of experiment: HMPV antiviral assay Method-B (clinical isolate TN/1501/A1 in LLC-MK2 cells, ATP-Lite readout). Format: cell-based, Human metapneumovirus (HMPV). The following applies: human metapneumovirus, LLC-MK2, 144 h, hMPV WT1501 (clinical isolate TN/1501/A1), 6 days. The method, boiled down:
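EC50 derived by four-parameter logistic fit of percent cell health, measured by ATP-Lite luminescence and normalised to virus-only and uninfected-cell controls. Compounds run in duplicate from 10 μM top, 3-fold, 10 points. Infection: LLC-MK2 cells, MOI 0.014, 2 μg/mL final TPCK-trypsin, serum-free, 6 days at 37° C.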

Where [3] appears, read: RSV-A Long strain, read-out: Human RSV-A (“Long”) EC50.
Setting [4] is: genotype A “Long” strain RSV, read-out: Human RSV-A (“Long”).

Read-outs that look alike come from different tables or passages of the source.

Regarding `COc1cc(C(=O)NC[C@](O)(c2cc3c(c(-c4ccc(F)c(Cl)c4)n2)OC[C@]3(C(N)=O)C(F)F)C2CC2)cc2cc(Cl)c(C)nc12` [Example 1032], the EC50 is over 200 nM in experiment [1] (setting [3]) and over 500 nM in experiment [2].
As to `COc1cc(C(=O)NC[C@](O)(c2cc3c(c(-c4ccc(F)c(F)c4Cl)n2)OC[C@]3(C)C(N)=O)C(F)(F)F)cc2cc(Cl)c(C)nc12` [Example 774], the values for the EC50 in experiment [1] (setting [4]) and in experiment [2] were under 200 nM and under 500 nM, respectively.
As to `COc1cc(C(=O)NC[C@](O)(c2cc3c(c(-c4ccc(F)c(F)c4F)n2)OC[C@@]3(C(N)=O)C(F)F)C(F)(F)F)cc2cn(C3CC3)nc12` [Example 1039], the EC50 in experiment [1] (setting [3]) is under 200 nM; in experiment [2], under 500 nM.
Turning to `COc1cc(C(=O)NC[C@](O)(c2cc3c(c(-c4ccc(F)cc4)n2)OC[C@]3(C)C(N)=O)C(F)(F)F)cc2cn(C3(F)CC3)nc12` [Example 820], the values for the EC50 in experiment [1] (setting [4]) and in experiment [2] were under 200 nM and under 500 nM, respectively.
Turning to `C[C@@H](O)COc1ccc(C(=O)NC[C@](O)(c2cc3c(c(-c4ccc5c(c4)OC(F)(F)O5)n2)OC[C@]3(C)C(N)=O)C2CC2)cc1OC1CC1` [Example 829], the EC50 was under 200 nM in experiment [1] (setting [3]) and over 500 nM in experiment [2].
`COc1cc(C(=O)NC[C@](O)(c2cc3c(c(-c4cc(F)c(F)cc4F)n2)OC[C@]3(C)C(N)=O)C2CC2)cc2cc(Cl)c(C)nc12` [Example 1151]: the EC50 was under 200 nM in experiment [1] (setting [3]) and under 500 nM in experiment [2].
Turning to `COc1cc(C(=O)NC[C@](O)(c2cc3c(c(-c4ccc(C5CC5)cc4)n2)OC[C@]3(C)C(N)=O)C(F)(F)F)cc2cn(C3CC3)nc12` [Example 891], the EC50 in experiment [1] (setting [3]) was under 200 nM; in experiment [2], over 500 nM.
As for `COc1cc(C(=O)NC[C@](O)(c2cc3c(c(-c4cc5c(cc4Cl)OC(F)(F)O5)n2)OC[C@]3(C)C(N)=O)C(F)(F)F)cc2cn(C3CC3)nc12` [Example 1227], the EC50 in experiment [1] (setting [3]) is under 200 nM; in experiment [2], under 500 nM.
`COc1cc(C(=O)NC[C@](O)(c2cc3c(c(-c4cc(Cl)c(F)cc4F)n2)OC[C@]3(C)C(N)=O)C2CC2)cc2cn(C3CC3)nc12` [Example 661]: the figures for the EC50 in experiment [1] (setting [4]) and in experiment [2] were under 200 nM and under 500 nM, respectively.
`C[C@]1(C(N)=O)COc2c1cc([C@@](O)(CNC(=O)c1ccnc3cc[nH]c13)C(F)(F)F)nc2-c1ccc(F)cc1` [Example 488]: the EC50 is under 200 nM in experiment [1] (setting [4]) and over 500 nM in experiment [2].
For the compound `Cc1cnc2c(Cl)cc(C(=O)NC[C@](O)(c3cc4c(c(-c5cc(F)c(F)cc5F)n3)OC[C@]4(C)C(N)=O)C(F)(F)F)cc2c1` [Example 1141], the EC50 in experiment [1] (setting [3]) was under 200 nM; in experiment [2], under 500 nM.
For the compound `COc1cc(C(=O)NC[C@](O)(c2cc3c(c(-c4ccc(F)c(C(F)(F)F)c4)n2)OC[C@]3(C)C(N)=O)C2CC2)cc2cn(C3(F)CC3)nc12` [Example 651], the EC50 in experiment [1] (setting [4]) was under 200 nM; in experiment [2], under 500 nM.
For the compound `COc1ccc(-c2nc([C@@](O)(CNC(=O)c3cc(OC)c4nn(C5CC5)cc4c3)C(F)(F)F)cc3c2OC[C@]3(C)C(N)=O)cc1` [Example 924], the EC50 is under 200 nM in experiment [1] (setting [3]) and over 500 nM in experiment [2].
The like results for `Cc1cnc2c(OC(F)F)cc(C(=O)NC[C@](O)(c3cc4c(c(-c5ccc6c(c5)OC(F)(F)O6)n3)OC[C@@]4(C(N)=O)C(F)F)C3CC3)cc2c1` [Example 1021] were, in that order, under 200 nM and under 500 nM.
On to `C[C@]1(C(N)=O)COc2c1cc([C@@](O)(CNC(=O)c1cc(OC3CC3)c3nn(C(F)F)cc3c1)C1CC1)nc2-c1ccc(F)c(Cl)c1F` [Example 568], for which the EC50 is under 200 nM in experiment [1] (setting [4]) and under 500 nM in experiment [2].
As for `COc1cc(C(=O)NC[C@](O)(c2cc3c(c(-c4c(F)cccc4Cl)n2)OC[C@]3(C)C(N)=O)C(F)(F)F)cc2cn(C3CC3)nc12` [Example 989], the EC50 is under 200 nM in experiment [1] (setting [3]) and under 500 nM in experiment [2].
`COc1cc(C(=O)NC[C@](O)(c2cc3c(c(-c4ccc(C(F)(F)F)cc4)n2)OC[C@]3(C)C(N)=O)C2CC2)cc2cn(C(F)F)nc12` [Example 796]: the EC50 in experiment [1] (setting [4]) was under 200 nM; in experiment [2], under 500 nM.
Consider `C[C@]1(C(N)=O)COc2c1cc([C@@](O)(CNC(=O)c1cc(Cl)c3nn(C4CC4)cc3c1)C1(F)CC1)nc2-c1cc(Cl)c(F)cc1F` [Example 759], for which the values for the EC50 in experiment [1] (setting [4]) and in experiment [2] were under 200 nM and under 500 nM, respectively.
With `COc1cc(C(=O)NC[C@](O)(c2cc3c(c(-c4ccc(F)c(Cl)c4)n2)OC[C@@]3(C(N)=O)C(F)F)C(F)(F)F)cc2sc(C3CC3)nc12` [Example 1017], the EC50 was under 200 nM in experiment [1] (setting [3]) and under 500 nM in experiment [2].
With `COc1cc(C(=O)NC[C@](O)(c2cc3c(c(-c4cc(F)c(F)c(Cl)c4)n2)OC[C@]3(C)C(N)=O)C(F)(F)F)cc2cc(Br)cnc12` [Example 785], the values for the EC50 in experiment [1] (setting [4]) and in experiment [2] were under 200 nM and under 500 nM, respectively.
Take `COc1cc(C(=O)NC[C@](O)(c2cc3c(c(-c4cc(F)ccc4Cl)n2)OC[C@]3(C)C(N)=O)C(F)(F)F)cc2cn(C3CC3)nc12` [Example 991]: the EC50 in experiment [1] (setting [3]) is under 200 nM; in experiment [2], under 500 nM.
As for `COc1cc(C(=O)NC[C@](O)(c2cc3c(c(-c4c(F)cc(Cl)cc4F)n2)OC[C@]3(C)C(N)=O)C2CC2)cc2cn(C3(F)CC3)nc12` [Example 1157], the EC50 in experiment [1] (setting [3]) was under 200 nM; in experiment [2] it was under 500 nM.
Consider `COc1cc(C(=O)NC[C@](O)(c2cc3c(c(-c4ccc(C5(C#N)CC5)cc4)n2)OC[C@]3(C)C(N)=O)C(F)(F)F)cc2cn(C3CC3)nc12` [Example 981], for which the EC50 in experiment [1] (setting [3]) is over 200 nM; in experiment [2], over 500 nM.
Turning to `COc1cc(C(=O)NCC(O)(c2cc3c(c(-c4cc(F)c(F)c(Cl)c4)n2)OC[C@]3(C)C(N)=O)C(F)(F)F)cc2cn(C3CC3)nc12` (stereo partly drawn) [Example 931], the EC50 in experiment [1] (setting [3]) is under 200 nM; in experiment [2] it was under 500 nM.
For `COc1cc(C(=O)NC[C@](O)(c2cc3c(c(-c4ccc(F)c(Cl)c4)n2)OC[C@]3(C)C(N)=O)C2CC2)cc2cc(C3CC3)nn12` [Example 703], the EC50 in experiment [1] (setting [4]) is under 200 nM; in experiment [2] it was under 500 nM.
For the compound `COc1cc(C(=O)NC[C@](O)(c2cc3c(c(-c4cnc(Cl)c(Cl)c4)n2)OC[C@]3(C)C(N)=O)C(F)(F)F)cc2cc(Cl)c(C)nc12` [Example 588], the EC50 was under 200 nM in experiment [1] (setting [4]) and over 500 nM in experiment [2].
Turning to `COc1cc(C(=O)NC[C@](O)(c2cc3c(c(-c4cc(Cl)c(F)cc4F)n2)OC[C@]3(C)C(N)=O)C2CC2)cc2cc(Br)c(C)nc12` [Example 1154], the values for the EC50 in experiment [1] (setting [3]) and in experiment [2] were under 200 nM and under 500 nM, respectively.
Take `COc1cc(C(=O)NC[C@](O)(c2cc3c(c(-c4cc(F)c(F)c(Cl)c4)n2)OC[C@]3(C)C(N)=O)C(F)(F)F)cc2cn(C(F)F)nc12` [Example 783]: the EC50 is under 200 nM in experiment [1] (setting [4]) and under 500 nM in experiment [2].
For the compound `COc1cc(C(=O)NC[C@](O)(c2cc3c(c(-c4c(F)cccc4F)n2)OC[C@]3(C)C(N)=O)C(F)(F)F)cc2cn(C3CC3)nc12` [Example 1233], the EC50 was under 200 nM in experiment [1] (setting [3]) and over 500 nM in experiment [2].
For the compound `Cc1nc2c(Cl)cc(C(=O)NC[C@](O)(c3cc4c(c(-c5ccc(F)c(Cl)c5)n3)OC[C@]4(C)C(N)=O)C3CC3)cc2cc1Cl` [Example 500], the EC50 is under 200 nM in experiment [1] (setting [4]) and under 500 nM in experiment [2].
`COc1cc(C(=O)NC[C@](O)(c2cc3c(c(-c4cc(Cl)c(F)c(Cl)c4)n2)OC[C@]3(C)C(N)=O)C(F)(F)F)cc2cc(Br)cnc12` [Example 672]: the EC50 in experiment [1] (setting [4]) was under 200 nM; in experiment [2], over 500 nM.
In the case of `COc1cc(C(=O)NC[C@](O)(c2cc3c(c(-c4ccc(OC(F)F)cc4)n2)OC[C@]3(C)C(N)=O)C(F)(F)F)cc2cn(C3CC3)nc12` [Example 926], the EC50 in experiment [1] (setting [3]) was under 200 nM; in experiment [2], over 500 nM.
The like results for `COc1cc(C(=O)NC[C@](O)(c2cc3c(c(-c4ccc(OC5CC5)cc4)n2)OC[C@]3(C)C(N)=O)C(F)(F)F)cc2cn(C3CC3)nc12` [Example 976] were, in that order, under 200 nM and over 500 nM.
Regarding `COc1cc(C(=O)NC[C@](O)(c2cc3c(c(-c4ccc(C#N)c(Cl)c4)n2)OC[C@]3(C)C(N)=O)C(F)(F)F)cc2cn(C(F)F)nc12` [Example 576], the EC50 was under 200 nM in experiment [1] (setting [4]) and over 500 nM in experiment [2].
In the case of `COc1cc(C(=O)NC[C@](O)(c2cc3c(c(-c4c(F)cc(Cl)cc4F)n2)OC[C@]3(C)C(N)=O)C2CC2)cc2cn(C(F)F)nc12` [Example 1156], the EC50 was under 200 nM in experiment [1] (setting [3]) and under 500 nM in experiment [2].
On to `C[C@]1(C(N)=O)COc2c1cc([C@@](O)(CNC(=O)c1ccc3nn(C4CC4)cc3c1)C(F)(F)F)nc2-c1cc(F)c(F)cc1F` [Example 1139], for which the EC50 in experiment [1] (setting [3]) is under 200 nM; in experiment [2], under 500 nM.
Turning to `COc1cc(-c2nc([C@@](O)(CNC(=O)c3cc(OC)c4nn(C5CC5)cc4c3)C(F)(F)F)cc3c2OC[C@]3(C)C(N)=O)ccc1Cl` [Example 934], the EC50 in experiment [1] (setting [3]) was under 200 nM; in experiment [2], over 500 nM.
For `COc1cc(C(=O)NC[C@](O)(c2cc3c(c(-c4ccc(F)c(Cl)c4)n2)OC[C@]3(C(N)=O)C(F)F)C(F)(F)F)cc2sc(C3CC3)nc12` [Example 1016], the EC50 in experiment [1] (setting [3]) was over 200 nM; in experiment [2] it was over 500 nM.
On to `COc1cc(C(=O)NC[C@](O)(c2cc3c(c(-c4ccc(F)cc4Cl)n2)OC[C@]3(C)C(N)=O)C(F)(F)F)cc2cn(C3CC3)nc12` [Example 993], for which the EC50 in experiment [1] (setting [3]) is under 200 nM; in experiment [2] it was under 500 nM.
